Assays:
Type in all cases: cell-based
[1] = Toxicity of compound against the cell strain RAW 264.7 (MTT); conditions: mouse, raw 264.7 cells, 1 × 10^-6 M, read-out: Ratio of optical absorbance
Procedure: [Toxicity test (Toxicity of compound against the cell strain RAW 264.7)]
Test was conducted in accordance with the method as described in J. Immunol. Methods, Vol. 94, pp. 57-68, (1986). Cell strain RAW 264.7 derived from the macrophage of mouse was incubated similarly as in the method of Test Example 1(1). After that, MTT reagent (5 mg/ml) in 1/10 amount of the culture medium was added to the cells, and incubated for 4 hours. The supernatant of culture medium was taken off, then the cells were collected by using 1% SDS solution and the optical absorbance at 570-630 nm of the SDS solution was measured.

[2] = test system: formation of TNF-α in cell strain RAW 264.7; assay: Activity for inhibiting the formation of TNF-α in vitro (RAW 264.7 cells, ELISA); conditions: Mus musculus, RAW264.7, control 100, LPS 100 ng/ml, 24 hours, read-out: Ratio of formed amount of TNF-α
Procedure: [Evaluation test of activity for inhibiting the formation of TNF-α in vitro]
Pyrimidine derivative obtained in Example 1 was used as test compound.
(§1) Cell strain RAW 264.7 (ATCC) derived from the macrophage of mouse was placed on each one of the wells on a microplate having 24-wells so as to put the cells in an amount of 3×10^5 cells/U (well). The cells were incubated for 24 hours in a phenol red free-RPMI-1640 culture medium (mfd. by GIBCO) to which 10% of equine serum (mfd. by Bio Whittaker), 100 U/ml of penicillin (mfd. by Dainippon Pharmaceutical Co., Ltd.) and 100 μg/ml of streptomycin (mfd. by Dainippon Pharmaceutical Co., Ltd.) were added.
Next, the equine serum was removed from the culture medium, and the reference culture medium as control was prepared by adding 2 mM of L-arginine (mfd. by Wako Pure Chemical Industries, Ltd.), 10 μM/ml of tetrahydrobiopterin (mfd. by ALEXIS) and 100 ng/ml of lipopolysaccharide (LPS)(mfd. by Sigma Chemical Co.) to a phenol red free-RPMI-1640 culture medium, so as to induce the formation of TNF-α.
On the other hand, the test culture medium, containing the test compound of Example 1 was prepared similarly as in the reference culture medium, except adding the test compound (1×10^-4, 1×10^-5 and 1×10^-6 M) dissolved in dimethyl sulfoxide (DMSO) at the same time of LPS-addition.
The concentration of TNF-α formed in the supernatant of each one of the culture media after 24 hour-incubation was measured by Factor-Test-X Mouse TNF-α ELISA Kit (mfd. by genzyme).

[3] = test system: formation of IL-8 in cell strain A 549; assay: Activity for inhibiting the formation of IL-8 in vitro (A 549 cells, ELISA); conditions: Homo sapiens, A549, control 100.0, 24 hours, read-out: Ratio of formed amount of IL-8
Procedure: [Evaluation test of activity for inhibiting the formation of IL-8 in vitro]
Pyrimidine derivative obtained in Example 1 was used as test comppound.
as §1, with “A 549” for “RAW 264.7”, “human alveolar epithelium cells” for “the macrophage of mouse”, “F-12 Nutrient Mixture” for “a phenol red free-RPMI-1640”, “serum,” for “serum (mfd. by Bio Whittaker),”
Next, the equine serum was removed from the culture medium, and the reference culture medium as control was prepared by adding inducers of TNF-α (mfd. by genzyme), IL-1β (mfd. by genzyme) and IFN-γ (mfd. by genzyme) to the culture medium, so as to induce the formation of IL-8.
On the other hand, the test culture medium, containing the test compound of Example 1 was prepared similarly as in the reference culture medium, except adding the test compound (1×10^-5, 1×10^-6 and 1×10^-7 M) dissolved in dimethyl sulfoxide (DMSO) at the same time of inducers-addition.
The concentration of IL-8 formed in the supernatant of each one of the culture media after 24-hour incubation was measured by IL-8 ELISA Kit Human (mfd. by genzyme). Further, MTT assay was conducted by the similar method as described in Text Example 2 to determine the index of toxicity for cells.

COCc1cc(=O)n2ncc(-c3ccc(Sc4ccccc4)cc3)c2[nH]1 [Example 1, 4,7-dihydro-5-methoxymethyl-7-oxo-3-(4-phenylthiophenyl)pyrazolo[1,5-a]pyrimidine]
viability at 1 µM [1]: 109% | activity at 100 µM ([2]; 1 × 10^-4 M): 5.1% | activity at 10 µM ([2]; 1 × 10^-5 M): 59.9% | activity at 1 µM ([2]; 1 × 10^-6 M): 120% | activity at 10 µM ([3]; 1 × 10^-5 M): 13.4% | activity at 1 µM ([3]; 1 × 10^-6 M): 52.6% | activity at 0.1 µM ([3]; 1 × 10^-7 M): 64.5%
